Results published in US7101878B1 (Agouron Pharmaceuticals, Inc., priority 1998, dated 2006).

molecular target: T1, mouse GnRH receptor (Mus musculus, UniProt Q01776); experiment: Radioligand binding, 125I-GnRH-A, 293 cells expressing mouse GnRH receptors; conditions: 10 uM
T1 construct: expressed in transfected cells; host or cells: 293 cells
T1 sequence (Q01776 1-327): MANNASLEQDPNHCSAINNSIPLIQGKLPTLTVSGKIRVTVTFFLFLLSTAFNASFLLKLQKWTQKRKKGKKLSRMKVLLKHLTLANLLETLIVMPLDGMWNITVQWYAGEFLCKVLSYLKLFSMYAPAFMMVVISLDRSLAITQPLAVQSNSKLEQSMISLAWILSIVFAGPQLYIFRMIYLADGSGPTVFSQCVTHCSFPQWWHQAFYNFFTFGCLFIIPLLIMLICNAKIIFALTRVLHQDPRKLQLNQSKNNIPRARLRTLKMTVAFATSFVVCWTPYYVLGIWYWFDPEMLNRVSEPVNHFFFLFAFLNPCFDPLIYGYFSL
Procedure, shortened: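 Bound label captured on 0.1% polyethyleneimine-treated GF/C filters, washed three times with PBS, counted. IC50 derived; identical set-up for every species.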

In the case of `Cc1cc2c(cc1Cc1ccc(C(=O)NC(CO)C(C)C)o1)C(C)(C)CCC2(C)C` (stereo not drawn) [drawing 1479], the “% Inhib. @ 10 uM mGnRH” value is reported as 103%.

same assay, conditions: 10 uM; read-out: % Inhib. @ 10 uM mGnRH

Going from `Cc1cc2c(cc1Cc1ccc(C(=O)NCCNc3cccc4ccccc34)o1)C(C)(C)CCC2(C)C` [drawing 1449] to `Cc1cc2c(cc1Cc1ccc(C(=O)NCCc3ccccc3)o1)C(C)(C)CCC2(C)C` [drawing 1452], the inhibition at 10 µM rises from 56% to 73%.

Compared with `Cc1cc2c(cc1Cc1ccc(C(=O)NC(C)(C)C)o1)C(C)(C)CCC2(C)C` [drawing 1450], `Cc1cc2c(cc1Cc1ccc(C(=O)NCC(C)(C)CN(C)C)o1)C(C)(C)CCC2(C)C` [drawing 1507] is higher in inhibition at 10 µM: 72% for the first, 98% for the second.

Compared with `CCN(CCO)C(=O)c1ccc(Cc2cc3c(cc2C)C(C)(C)CCC3(C)C)o1` [drawing 1451], `Cc1cc2c(cc1Cc1ccc(C(=O)NCCO)o1)C(C)(C)CCC2(C)C` [drawing 1527] is lower in inhibition at 10 µM: 81% for the first, 53% for the second.

Compared with `COCC(C)NC(=O)c1ccc(Cc2cc3c(cc2C)C(C)(C)CCC3(C)C)o1` (stereo not drawn) [drawing 1454], `Cc1cc2c(cc1Cc1ccc(C(=O)NC(CO)C(C)C)o1)C(C)(C)CCC2(C)C` (stereo not drawn) [drawing 1478] is lower in inhibition at 10 µM: 91% for the first, 87% for the second.

Compared with `Cc1ccc(N2CCN(C(=O)c3ccc(Cc4cc5c(cc4C)C(C)(C)CCC5(C)C)o3)CC2)c(C)c1` [drawing 1455], `Cc1cc2c(cc1Cc1ccc(C(=O)N3CCN(c4cccc(C)c4C)CC3)o1)C(C)(C)CCC2(C)C` [drawing 1468] is higher in inhibition at 10 µM: 52% for the first, 58% for the second.

First: Cc1cc2c(cc1Cc1ccc(C(=O)NC3CCC3)o1)C(C)(C)CCC2(C)C [drawing 1456]
Second: Cc1cc2c(cc1Cc1ccc(C(=O)NC3CCS(=O)(=O)C3)o1)C(C)(C)CCC2(C)C (stereo not drawn) [drawing 1508]
The inhibition at 10 µM of the first is lower: 60% for the first, 90% for the second.

Compared with `Cc1cc2c(cc1Cc1ccc(C(=O)N3CCC(N4CCCC4)CC3)o1)C(C)(C)CCC2(C)C` [drawing 1458], `Cc1cc2c(cc1Cc1ccc(C(=O)N3CCC(C)CC3)o1)C(C)(C)CCC2(C)C` [drawing 1493] is lower in inhibition at 10 µM: 96% for the first, 82% for the second.

Going from `Cc1cc2c(cc1Cc1ccc(C(=O)N(CCc3ccccn3)Cc3ccccc3)o1)C(C)(C)CCC2(C)C` [drawing 1459] to `CCOC(=O)CN(Cc1ccccc1)C(=O)c1ccc(Cc2cc3c(cc2C)C(C)(C)CCC3(C)C)o1` [drawing 1494], the inhibition at 10 µM falls from 76% to 62%.

Going from `Cc1cc2c(cc1Cc1ccc(C(=O)N(CCN3CCCCC3)Cc3ccccc3)o1)C(C)(C)CCC2(C)C` [drawing 1460] to `Cc1cc2c(cc1Cc1ccc(C(=O)N(CCN3CCCC3)Cc3ccccc3)o1)C(C)(C)CCC2(C)C` [drawing 1462], the inhibition at 10 µM falls from 104% to 100%.

First: Cc1cc2c(cc1Cc1ccc(C(=O)N(CCN3CCOCC3)Cc3ccccc3)o1)C(C)(C)CCC2(C)C [drawing 1461]
Second: Cc1cc2c(cc1Cc1ccc(C(=O)N(CCCN3CCN(C)CC3)Cc3ccc(F)cc3)o1)C(C)(C)CCC2(C)C [drawing 1490]
The inhibition at 10 µM of the first is lower: 91% for the first, 103% for the second.

First: Cc1cc2c(cc1Cc1ccc(C(=O)NC(C)C3CCCCC3)o1)C(C)(C)CCC2(C)C (stereo not drawn) [drawing 1463]
Second: Cc1cc2c(cc1Cc1ccc(C(=O)NC(CO)CC3CCCCC3)o1)C(C)(C)CCC2(C)C (stereo not drawn) [drawing 1465]
The inhibition at 10 µM of the first is lower: 72% for the first, 76% for the second.

First: Cc1cc2c(cc1Cc1ccc(C(=O)NC3(CO)CCCC3)o1)C(C)(C)CCC2(C)C [drawing 1464]
Second: Cc1cc2c(cc1Cc1ccc(C(=O)NC3CCCCC3O)o1)C(C)(C)CCC2(C)C (stereo not drawn) [drawing 1522]
The inhibition at 10 µM of the first is higher: 98% for the first, 97% for the second.

Going from `Cc1cc2c(cc1Cc1ccc(C(=O)NC[C@@H]3CCCC[C@H]3O)o1)C(C)(C)CCC2(C)C` [drawing 1466] to `CCN(C(=O)c1ccc(Cc2cc3c(cc2C)C(C)(C)CCC3(C)C)o1)C1CCCCC1` [drawing 1524], the inhibition at 10 µM rises from 97% to 100%.

Compared with `Cc1cc2c(cc1Cc1ccc(C(=O)N3CCC(C(=O)c4ccc(F)cc4)CC3)o1)C(C)(C)CCC2(C)C` [drawing 1467], `Cc1cc2c(cc1Cc1ccc(C(=O)N3CCC(C(=O)c4ccccc4)CC3)o1)C(C)(C)CCC2(C)C` [drawing 1495] is lower in inhibition at 10 µM: 63% for the first, 59% for the second.

Compared with `Cc1cc2c(cc1Cc1ccc(C(=O)NCC(O)c3ccccc3)o1)C(C)(C)CCC2(C)C` (stereo not drawn) [drawing 1470], `CCC(C)CNC(=O)c1ccc(Cc2cc3c(cc2C)C(C)(C)CCC3(C)C)o1` (stereo not drawn) [drawing 1499] is lower in inhibition at 10 µM: 101% for the first, 73% for the second.

First: Cc1cc2c(cc1Cc1ccc(C(=O)N(C)CCC=C3c4ccccc4CCc4ccccc43)o1)C(C)(C)CCC2(C)C [drawing 1472]
Second: Cc1cc2c(cc1Cc1ccc(C(=O)N3CCc4ccccc4C3Cc3ccccc3)o1)C(C)(C)CCC2(C)C (stereo not drawn) [drawing 1515]
The inhibition at 10 µM of the first is higher: 58% for the first, 46% for the second.

First: Cc1cc2c(cc1Cc1ccc(C(=O)N(CCC#N)Cc3cccnc3)o1)C(C)(C)CCC2(C)C [drawing 1473]
Second: Cc1cc2c(cc1Cc1ccc(C(=O)N(Cc3ccc(C(C)C)cc3)Cc3cccnc3)o1)C(C)(C)CCC2(C)C [drawing 1474]
The inhibition at 10 µM of the first is higher: 91% for the first, 76% for the second.

Going from `Cc1cc2c(cc1Cc1ccc(C(=O)N(Cc3cccnc3)Cc3cccc(C(F)(F)F)c3)o1)C(C)(C)CCC2(C)C` [drawing 1475] to `Cc1cc2c(cc1Cc1ccc(C(=O)N(CCC3CCCN3C)Cc3ccc4ccccc4c3)o1)C(C)(C)CCC2(C)C` (stereo not drawn) [drawing 1492], the inhibition at 10 µM rises from 80% to 105%.

First: CCCN(Cc1ccc([N+](=O)[O-])cc1)C(=O)c1ccc(Cc2cc3c(cc2C)C(C)(C)CCC3(C)C)o1 [drawing 1480]
Second: Cc1cc2c(cc1Cc1ccc(C(=O)N(CCN(C)C)Cc3ccccc3[N+](=O)[O-])o1)C(C)(C)CCC2(C)C [drawing 1491]
The inhibition at 10 µM of the first is lower: 66% for the first, 103% for the second.

Going from `CCC(CO)NC(=O)c1ccc(Cc2cc3c(cc2C)C(C)(C)CCC3(C)C)o1` (stereo not drawn) [drawing 1481] to `Cc1cc2c(cc1Cc1ccc(C(=O)NCCSCCO)o1)C(C)(C)CCC2(C)C` [drawing 1498], the inhibition at 10 µM rises from 89% to 101%.

Going from `Cc1cc2c(cc1Cc1ccc(C(=O)NCc3ccc(F)cc3)o1)C(C)(C)CCC2(C)C` [drawing 1482] to `Cc1cc2c(cc1Cc1ccc(C(=O)NCCc3ccc(Cl)cc3)o1)C(C)(C)CCC2(C)C` [drawing 1521], the inhibition at 10 µM falls from 97% to 81%.

First: Cc1cc2c(cc1Cc1ccc(C(=O)NCCn3c([N+](=O)[O-])cnc3C)o1)C(C)(C)CCC2(C)C [drawing 1486]
Second: CCN(CC)CCNC(=O)c1ccc(Cc2cc3c(cc2C)C(C)(C)CCC3(C)C)o1 [drawing 1506]
The inhibition at 10 µM of the first is lower: 42% for the first, 94% for the second.

First: Cc1cc2c(cc1Cc1ccc(C(=O)NCCCOC(C)C)o1)C(C)(C)CCC2(C)C [drawing 1487]
Second: Cc1cc2c(cc1Cc1ccc(C(=O)NCCCCCCN(C)C)o1)C(C)(C)CCC2(C)C [drawing 1519]
The inhibition at 10 µM of the first is lower: 93% for the first, 106% for the second.

Going from `Cc1cc2c(cc1Cc1ccc(C(=O)N(CCCN3CCN(C)CC3)Cc3cc(C)n(-c4cccc(C(F)(F)F)c4)c3C)o1)C(C)(C)CCC2(C)C` [drawing 1488] to `Cc1cc2c(cc1Cc1ccc(C(=O)N(CCN(C)C)Cc3cccc4ccccc34)o1)C(C)(C)CCC2(C)C` [drawing 1489], the inhibition at 10 µM rises from 102% to 103%.

Going from `COc1cccc(N2CCN(C(=O)c3ccc(Cc4cc5c(cc4C)C(C)(C)CCC5(C)C)o3)CC2)c1` [drawing 1497] to `COc1cccc(N2CCN(C(=O)c3ccc(Cc4cc5c(cc4C)C(C)(C)CCC5(C)C)o3)CC2C)c1` (stereo not drawn) [drawing 1513], the inhibition at 10 µM rises from 67% to 76%.

Compared with `Cc1cc2c(cc1Cc1ccc(C(=O)N(C)CC3OCCO3)o1)C(C)(C)CCC2(C)C` [drawing 1500], `Cc1cc2c(cc1Cc1ccc(C(=O)N(C)CCCN(C)C)o1)C(C)(C)CCC2(C)C` [drawing 1516] is higher in inhibition at 10 µM: 86% for the first, 92% for the second.

Going from `Cc1cc2c(cc1Cc1ccc(C(=O)N(CC(C)C)CC(C)C)o1)C(C)(C)CCC2(C)C` [drawing 1501] to `COC(CNC(=O)c1ccc(Cc2cc3c(cc2C)C(C)(C)CCC3(C)C)o1)OC` [drawing 1505], the inhibition at 10 µM rises from 85% to 103%.

Compared with `Cc1cc2c(cc1Cc1ccc(C(=O)N3C[C@H]4CCCC[C@H]4CC3C(=O)NC(C)(C)C)o1)C(C)(C)CCC2(C)C` (stereo partly drawn) [drawing 1502], `CC(=O)N1CCCN(C(=O)c2ccc(Cc3cc4c(cc3C)C(C)(C)CCC4(C)C)o2)CC1` [drawing 1503] is higher in inhibition at 10 µM: 52% for the first, 73% for the second.

First: Cc1cc2c(cc1Cc1ccc(C(=O)N(Cc3ccco3)C3CC(=O)N(C)C3=O)o1)C(C)(C)CCC2(C)C (stereo not drawn) [drawing 1504]
Second: Cc1cccc(N2CCN(C(=O)c3ccc(Cc4cc5c(cc4C)C(C)(C)CCC5(C)C)o3)CC2C)c1 (stereo not drawn) [drawing 1520]
The inhibition at 10 µM of the first is lower: 69% for the first, 73% for the second.

First: Cc1cc2c(cc1Cc1ccc(C(=O)N3CCC(O)CC3)o1)C(C)(C)CCC2(C)C [drawing 1510]
Second: Cc1cc2c(cc1Cc1ccc(C(=O)N3CCCC(C)(C)C3)o1)C(C)(C)CCC2(C)C [drawing 1523]
The inhibition at 10 µM of the first is lower: 77% for the first, 98% for the second.

Going from `Cc1cc2c(cc1Cc1ccc(C(=O)N3CCC4(CC3)C(=O)NCN4c3ccccc3)o1)C(C)(C)CCC2(C)C` [drawing 1511] to `Cc1cc2c(cc1Cc1ccc(C(=O)N3CCC(O)(c4ccc(Br)cc4)CC3)o1)C(C)(C)CCC2(C)C` [drawing 1512], the inhibition at 10 µM falls from 72% to 49%.

Compared with `Cc1cc2c(cc1Cc1ccc(C(=O)NCCc3c[nH]c4ccc(O)cc34)o1)C(C)(C)CCC2(C)C` [drawing 1526], `Cc1cc2c(cc1Cc1ccc(C(=O)NCCc3ccc(Oc4ccccc4)cc3)o1)C(C)(C)CCC2(C)C` [drawing 1529] is lower in inhibition at 10 µM: 84% for the first, 57% for the second.

`CCOC(=O)N1CCN(C(=O)c2ccc(Cc3cc4c(cc3C)C(C)(C)CCC4(C)C)o2)CC1` [drawing 1530] gave an inhibition at 10 µM of 65%.
